Experimental data from patent publication US20240150293A1, “SPIROCYCLOHEXANE DERIVATIVES, PHARMACEUTICAL COMPOSITIONS CONTAINING THEM AND THEIR USES AS ANTI-APOPTOTIC INHIBITORS” (LES LABORATOIRES SERVIER, priority 2021, published 2024).

Target: Mcl-1 protein (UniProtKB Q07820) (Homo sapiens (Human), UniProt Q07820)
Assay: Inhibition of Mcl-1 by the fluorescence polarisation assay (Example A, Method A)
Assay type: binding
Conditions: fluorescence polarization assay
In short: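 Protein (5 nM) and fluorescein-tagged peptide tracer (1 nM) incubated with 11-point compound series for 2 h at room temperature in HEPES/NaCl/Tween 20 buffer, pH 7.4, 5% DMSO. Displacement read as decrease in polarisation; IC50 fitted by 4-parameter logistic, converted to Ki (cKi or eKi).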

Mcl-1 protein, sequence (Q07820 whole entry): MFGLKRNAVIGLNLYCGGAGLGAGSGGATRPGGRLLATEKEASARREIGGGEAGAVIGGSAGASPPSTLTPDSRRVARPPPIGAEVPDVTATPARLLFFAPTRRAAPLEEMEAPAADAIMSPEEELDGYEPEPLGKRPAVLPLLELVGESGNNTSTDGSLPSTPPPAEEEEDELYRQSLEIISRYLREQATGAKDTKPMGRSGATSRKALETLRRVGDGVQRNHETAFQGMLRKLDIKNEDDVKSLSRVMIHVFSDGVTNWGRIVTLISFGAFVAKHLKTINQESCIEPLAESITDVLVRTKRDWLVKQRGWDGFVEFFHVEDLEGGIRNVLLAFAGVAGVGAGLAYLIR

Question: For `CN1CCN(CCCC2Cc3ccccc3[C@]23CC[C@@](Nc2cccc(Cl)c2)(C(=O)O)CC3)CC1=O` (stereo partly drawn) [Example 198, (1r,4r)-4-(3-chloroanilino)-2′-[3-(4-methyl-3-oxopiperazin-1-yl)propyl]-2′,3′-dihydrospiro[cyclohexane-1,1′-indene]-4-carboxylic acid], which Ki is on record?
Answer: 7.48 µM

Question: With `O=C(O)[C@]1(Nc2cccc(Cl)c2)CC[C@@]2(CC1)c1ccccc1CC2[C@H]1C[C@@H]1COc1ccnc2ccsc12` (single isomer, unassigned) [Example 103, (1r,4r)-4-(3-chloroanilino)-2′-[(1R*,2S*)-2-{[(thieno[3,2-b]pyridin-7-yl)oxy]methyl}cyclopropyl]-2′,3′-dihydrospiro[cyclohexane-1,1′-indene]-4-carboxylic acid] as the compound, how does the Ki read?
Answer: 0.214 µM

Question: `COc1cccc(C2=Cc3ccccc3[C@]23CC[C@@](Nc2cccc(Cl)c2)(C(=O)O)CC3)c1Cl` [Example 267, (1s,4s)-4-(3-chloroanilino)-2′-(2-chloro-3-methoxyphenyl)spiro[cyclohexane-1,1′-indene]-4-carboxylic acid] was tested. Which Ki did it give?
Answer: 0.259 µM

Question: For `COc1ccc(C)c(C2=Cc3ccccc3[C@]23CC[C@@](Nc2cccc(Cl)c2)(C(=O)O)CC3)c1` [Example 252, (1s,4s)-4-(3-chloroanilino)-2′-(5-methoxy-2-methylphenyl)spiro[cyclohexane-1,1′-indene]-4-carboxylic acid], which Ki is on record?
Answer: 5.27 µM

Question: How did the Ki turn out when `O=C(O)C1(Nc2cccc(Br)c2)CCC2(CC1)c1ccccc1CC2CCCc1ccccc1` (single isomer, unassigned) [Example 151, (1r,4r)-4-(3-bromoanilino)-2′-(3-phenylpropyl)-2′,3′-dihydrospiro[cyclohexane-1,1′-indene]-4-carboxylic acid] was run?
Answer: 1.34 µM

Question: `O=C(O)[C@]1(Nc2cccc(Cl)c2)CC[C@@]2(CC1)c1ccccc1C[C@@H]2c1cccc(Cc2ccccc2)c1` [Example 326, (1r,2′R,4R)-2′-(3-benzylphenyl)-4-(3-chloroanilino)-2′,3′-dihydrospiro[cyclohexane-1,1′-indene]-4-carboxylic acid] was tested. Which Ki did it give?
Answer: 19.3 µM

Question: Which Ki does the source give for `CN(CCc1ccncc1)C(=O)C1Cc2ccccc2[C@]12CC[C@@](Nc1cccc(Cl)c1)(C(=O)O)CC2` (single isomer, unassigned) [Example 404, (1r,4r)-4-(3-chloroanilino)-2′-{methyl[2-(pyridin-4-yl)ethyl]carbamoyl}-2′,3′-dihydrospiro[cyclohexane-1,1′-indene]-4-carboxylic acid] here?
Answer: 7.78 µM

Question: With `COc1ccc(Cl)c(C2=Cc3ccccc3[C@]23CC[C@@](Nc2cccc(Cl)c2)(C(=O)O)CC3)c1` [Example 246, (1s,4s)-4-(3-chloroanilino)-2′-(2-chloro-5-methoxyphenyl)spiro[cyclohexane-1,1′-indene]-4-carboxylic acid] as the compound, how does the Ki read?
Answer: 4.2 µM

Question: For `O=C(O)[C@]1(Nc2cccc(Cl)c2)CC[C@]2(C=Cc3ccccc32)CC1` [Example 65, (1s,4s)-4-(3-chloroanilino)spiro[cyclohexane-1,1′-indene]-4-carboxylic acid], which Ki is on record?
Answer: 4.99 µM

Question: For `Cc1ccc2c(c1)[C@]1(CC[C@](Nc3cccc(Br)c3)(C(=O)O)CC1)C(=O)N2C` [Example 7, (1r,4r)-4-(3-bromoanilino)-1′,5′-dimethyl-2′-oxo-1′,2′-dihydrospiro[cyclohexane-1,3′-indole]-4-carboxylic acid], which Ki is on record?
Answer: 23.8 µM

Question: `O=C(O)[C@]1(Nc2cccc(Cl)c2)CC[C@]2(CC1)C(c1cc3c(-c4ccncc4)cccc3o1)=Cc1ccccc12` [Example 361, (1s,4s)-4-(3-chloroanilino)-2′-[4-(pyridin-4-yl)-1-benzofuran-2-yl]spiro[cyclohexane-1,1′-indene]-4-carboxylic acid] was tested. Which Ki did it give?
Answer: 14.8 µM

Question: How did the Ki turn out when `CN1c2ccc(I)cc2[C@]2(CC[C@](Nc3cccc(Br)c3)(C(=O)O)CC2)C1=O` [Example 5, (1r,4r)-4-(3-bromoanilino)-5′-iodo-1′-methyl-2′-oxo-1′,2′-dihydrospiro[cyclohexane-1,3′-indole]-4-carboxylic acid] was run?
Answer: 22 µM
